Reference: patent US4167511A, “Methylsilacyclopentenyl-containing silylating agents and method therefor” (Dow Corning Corporation, priority 1978, dated 1979)

Experiment: Silylating power: half-life of silylating agent in excess isopropyl alcohol at 35° C. (1H n.m.r.)
Format: physicochemical
Details: for Half-life in Excess Isopropanol: 0.1 ml. silylating agent in 0.5 ml. anhydrous isopropyl alcohol, 35° C., n.m.r.
Source text: The compositions of this invention have unexpected silylating power. By the terms silylating and silylation it is meant a process wherein an active-hydrogen, i.e. one bond to an oxygen, sulfur or nitrogen atom, in a compound is replaced with a hydrocarbon-substituted silyl radical. Silylation, according to the process of this invention proceeds rapidly and, in many cases, essentially quantitatively thereby replacing an active-hydrogen with a methylsilacyclopentenyl radical. By silylating power it is meant the ability of a silylating agent to silylate isopropyl alcohol as indicated by the half-life of the silylating agent in excess isopropyl alcohol at 35° C., using standard chemical kinetic measuring methods hereinafter described. Silylating power is inversely related to said half-life.
Standard nuclear magnetic resonance (n.m.r.) tubes, 5 mm. O.D.×205 mm. long, were first charged with 0.1 ml. of the silylating agents listed in the Table and then with 0.5 ml. of anhydrous isopropyl alcohol using a dry box to insure anhydrous conditions. Immediately after the addition of isopropyl alcohol the tubes were stoppered, inverted at least once to mix the reactants, removed from the dry box, and, within 30 seconds after the addition of isopropyl alcohol, were placed in a varian A-60 ^1 H n.m.r. spectometer at 35° C. The n.m.r. spectrometer was preset to record the signal of the hydrogen atoms in the silicon-bonded methyl group. In repeat experiments the n.m.r. spectrometer was preset to record the signal of the hydrogen atoms in the methyl groups of N-methylacetamideor the nitrogen-bound hydrogen atom in epsilon-caprolactam. Where possible the reaction was followed by taking several readings of the appropriate n.m.r. signal intensity over a period of time.
The compositions of this invention have a half-life which is too short to measure by this technique since they are completely reacted before the reaction mixture is placed in the n.m.r. spectrometer.

Compound	Half-life in Excess Isopropanol [min]	silylating power (compared in words with triorganosilyl analogs, inversely related to half-life in excess isopropyl alcohol at 35° C.)
CC(=O)N(C)[Si](C)(C)CCC(F)(F)F	40	–
C=C[Si](C)(C)N(C)C(C)=O	240	–
methylsilacyclopentenyl-N-methylacetamide	–	greater than that of trimethylsilyl-N-methylacetamide, dimethylvinylsilyl-N-methylacetamide, dimethylphenylsilyl-N-methylacetamide and dimethyl-3,3,3-trifluoropropylsllyl-N-methylacetamide
CC(=O)N(C)[Si](C)(C)c1ccccc1	55	–
